Results from patent US6569906B1, “Composition containing a precursor capable of being hydrolysed by glucocerebrosidase” (Pierre Fabre Dermo-Cosmetique, priority 1998, dated 2003).

How the values were obtained:
glucocerebrosidase = molecular target: T1, glucocerebrosidase (Homo sapiens, UniProt P04062); experiment: Kinetics of hydrolysis of glucosylated precursors by glucocerebrosidase of a stratum corneum extract; type: biochemical; details: for Quantity of molecule released: phthalate buffer pH 5.6, 24 hours incubation, freeze-dried cutaneous extract, three strippings of 15 cm^2; for Release of the active agent from its glucosylated precursor: from the glucopyranoside precursor
T1 construct: a freeze-dried cutaneous extract obtained after taking a sample by three successive strippings of 15 cm^2; from tissue; host or cells: stratum corneum (powdered, freeze-dried cutaneous extract from three successive strippings)
T1 sequence (P04062 40-536): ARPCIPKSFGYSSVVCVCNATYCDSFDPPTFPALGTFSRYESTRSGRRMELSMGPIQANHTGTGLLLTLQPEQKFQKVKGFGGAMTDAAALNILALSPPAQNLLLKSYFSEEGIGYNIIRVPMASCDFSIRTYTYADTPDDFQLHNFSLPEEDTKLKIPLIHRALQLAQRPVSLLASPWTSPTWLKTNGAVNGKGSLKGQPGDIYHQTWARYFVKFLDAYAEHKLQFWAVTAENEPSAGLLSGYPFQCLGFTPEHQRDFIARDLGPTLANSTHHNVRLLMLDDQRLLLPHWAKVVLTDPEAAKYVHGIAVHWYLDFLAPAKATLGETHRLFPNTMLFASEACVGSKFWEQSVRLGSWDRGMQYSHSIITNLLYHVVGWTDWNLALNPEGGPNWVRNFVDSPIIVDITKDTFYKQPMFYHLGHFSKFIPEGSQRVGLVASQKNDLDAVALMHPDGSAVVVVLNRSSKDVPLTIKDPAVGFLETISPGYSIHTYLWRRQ
Description: The precursor and the stratum corneum sample in powdered form are incorporated into a liquid medium buffered with a phthalate buffer at pH 5.6. The mixture is incubated for 24 hours and the quantity of active agent released is assayed by densitometry on a thin-layer chromatography plate.
The following table gives, for various glucosylated precursors, the quantity of molecule released following their hydrolysis by glucocerebrosidase over 24 hours by a freeze-dried cutaneous extract obtained after taking a sample by three successive strippings of 15 cm^2.

[1] = Nonirradiated; cream containing 0.4%
Description: The photostability of delta-tocopheryl-glucopyranoside and that of delta-tocopherol are compared.
Samples of a cream containing 0.4% of delta-tocopheryl-glucopyranoside or of delta-tocopherol are irradiated with a 28 J/cm^2 incident light of 290 to 800 nm (5 DEM).

[2] = Antioxidant activity against the peroxidation of squalene, MDA as indicator
Description: (§1) The concentration of MDA released is measured by complexing with thiobarbituric acid in an acidic medium. The chromogenic complex formed absorbs at 532 nm. Its quantification is monitored by fluorimetry.
The antioxidant activity of various compounds against the peroxidation of an unsaturated lipid, squalene, is measured.

[3] = MDA released in a cream with borage oil containing vitamin E after two hour solar exposure (thiobarbituric acid complex); details: for Concentration of MDA released: two hour solar exposure
Description: The concentration of malonaldehyde (MDA) released in a cream containing increasing quantities of an antioxidant, vitamin E (or alpha-tocopherol), which is subjected to an oxidative stress, is measured.
The cream containing vitamin E also contains borage oil which is naturally rich in linoleic acid. Oxidative stress consists in a two hour solar exposure.
as §1

Compound | Quantity of molecule released (glucocerebrosidase) [n mol/hour] | Quantity of MDA released [2] [μg MDA] | other results
Cc1cc(=O)oc2cc(OC3O[C@H](CO)[C@@H](O)[C@H](O)[C@H]3O)ccc12 (stereo partly shown) [4-methylumbelliferyl-glucopyranoside, 4-methylumbelliferyl glucopyranoside] | 100 ± 7 |  | 
Cc1cc(O)cc2c1O[C@](C)(CCC[C@H](C)CCC[C@H](C)CCCC(C)C)CC2 [Delta-tocopherol, delta-tocopherol] |  | 7.2 ± 1.7 | Amount of compound in the cream [1]: 310 ± 14 Micromoles
Cc1cc(O[C@@H]2O[C@H](CO)[C@@H](O)[C@H](O)[C@H]2O)cc2c1O[C@](C)(CCC[C@H](C)CCC[C@H](C)CCCC(C)C)CC2 [Delta-tocopherol-glucopyranoside] | 14.3 ± 1 | 128 ± 38 | Amount of compound in the cream [1]: 311 ± 7 Micromoles
OC[C@H]1OC(Oc2ccccc2)[C@H](O)[C@@H](O)[C@@H]1O (stereo partly shown) [Phenylglucopyranoside] | 0.2 ± 0.5 |  | 
CC(C)CCCC(C)CCCC(C)CCCC1(C)CCc2cc(OC3OC(CO)C(O)C(O)C3O)ccc2O1 (stereo not shown) [Tocol-glucopyranoside, tocol-glucopyranoside] | 14.8 ± 1.2 | 142 ± 28 | 
CC(C)CCCC(C)CCCC(C)CCCC1(C)CCc2cc(O)ccc2O1 (stereo not shown) [Tocol] |  | 6 ± 1.9 | 
CCCCCCCCCCCCCCCC(=O)Oc1c(C)c(C)c2c(c1C)CCC(C)(CCCC(C)CCCC(C)CCCC(C)C)O2 (stereo not drawn) [Vitamin E palmitate, alpha-tocopherol palmitate] |  | 182.7 ± 39 | 
Cc1c(C)c2c(c(C)c1O)CC[C@@](C)(CCC[C@H](C)CCC[C@H](C)CCCC(C)C)O2 [vitamin E, alpha-tocopherol] |  |  | Concentration of MDA released ([3]; 0.05 % by mass vitamin E in the cream): 1.2 ± 0.15 μg MDA/100 mg cream; Concentration of MDA released ([3]; 0.1 % by mass vitamin E in the cream): 1.9 ± 0.20 μg MDA/100 mg cream; Concentration of MDA released ([3]; 0.15 % by mass vitamin E in the cream): 2.0 ± 0.20 μg MDA/100 mg cream; Pro-inflammatory effect ([3]; cream rich in polyunsaturated fatty acid): causes a pro-inflammatory effect; Release of the active agent from its glucosylated precursor (glucocerebrosidase): not released
Cc1c(C)c2c(c(C)c1OC1O[C@H](CO)[C@@H](O)[C@H](O)[C@H]1O)CCC(C)(CCCC(C)CCCC(C)CCCC(C)C)O2 (stereo partly drawn) [α-Tocopheryl-glucopyranoside] | 0 |  | 
Cc1c(OC2O[C@H](CO)[C@@H](O)[C@H](O)[C@H]2O)cc2c(c1C)OC(C)(CCCC(C)CCCC(C)CCCC(C)C)CC2 (stereo partly shown) [γ-Tocopheryl-glucopyranoside] | 0 |  | 
Cc1c(O)cc2c(c1C)O[C@](C)(CCC[C@H](C)CCC[C@H](C)CCCC(C)C)CC2 [γ-tocopherol] |  |  | Release of the active agent from its glucosylated precursor (glucocerebrosidase): not released
